Experimental data: patent publication US9024033B2, “Anti-malarial agents” (MMV Medicines for Malaria Venture, priority 2010, dated 2015)
Values after ≈ are worked out from the molar mass of the structure shown.

Key:
Format in all cases: cell-based
[1] = test system: P. falciparum (K1); experiment: Assay 1: anti-malarial in vitro efficacy, P. falciparum K1; conditions: Plasmodium falciparum; strain K1, assay 1
Protocol: (§1) The ability of aminopyridine derivatives according to the invention to kill P. falciparum parasites and/or to inhibit its proliferation was tested as follows:
(§2) Assay 1: The protocol used was as described in the supplemental material to Fiddock et al., 2004, Nature Reviews Drug Discovery, (3), p 509. […]

[2] = test system: P. falciparum (NF54); experiment: Assay 1: anti-malarial in vitro efficacy, P. falciparum NF54; conditions: Plasmodium falciparum; strain NF54, assay 1
Protocol: as §1, §2

[3] = test system: P. falciparum (3D7); experiment: Assay 2: DAPI imaging assay of parasite replication, P. falciparum 3D7; conditions: Plasmodium falciparum, strain 3D7, 1.8 μM, 72 hours
Protocol: as §1
(§3) Assay 2: Compounds were incubated in the presence of 2 or 3% ring stage parasite (P. falciparum 3D7 or Dd2) and 0.3% hematocrite in a total assay volume of 50 μL, for 72 hours in a humidified atmosphere at 37° C., 5% O2 and 5% CO2, in Poly-D-lysine coated Cell Carrier Imaging plates (Perkin Elmer). After incubation plates were stained with DAPI (4′,6-diamidino-2-phenylindole, Invitrogen) in the presence of Saponin and Triton X-100 (Sigma-Aldrich) and incubated for a further 5 hours at RT in the dark before imaging on the OPERATM HTS confocal imaging system (Perkin Elmer). The digital images obtained were then analyzed using the PerkinElmer Acapella spot detection software where spots which fulfil the criteria established for a stained parasite are counted. The % inhibition of parasite replication was calculated using DMSO and 2 μM Artemisinin control data. Measured % inhibition and EC50 (ng/ml) are reported in Tables 5 & 6 below against different strains of P. falciparum K1, NF54 (assay 1) and 3D7, Dd2 (assay 2), respectively).

[4] = test system: P. falciparum (Dd2); experiment: Assay 2: DAPI imaging assay of parasite replication, P. falciparum Dd2; conditions: Plasmodium falciparum, strain Dd2, 1.8 μM, 72 hours
Protocol: as §1, §3

EC50 [1]	EC50 [2]	SMILES	inhibition at 1.8 µM [3]	inhibition at 1.8 µM [4]
0.014 µg/mL (≈ 0.0394 µM)		COc1ccc(-c2cc(-c3ccc(S(C)(=O)=O)cc3)cnc2N)cn1 [Compound 1, 3-(6-Methoxypyridin-3-yl)-5-(4-methylsulfonylphenyl) pyridin-2-amine]		
0.031 µg/mL (≈ 0.079 µM)	0.041 µg/mL (≈ 0.104 µM)	CS(=O)(=O)c1ccc(-c2cnc(N)c(-c3cccc(C(F)(F)F)c3)c2)cc1 [Compound 2, 5-(4-methylsulfonylphenyl)-3-[3-(trifluoromethyl)phenyl]pyridin-2-amine]	99%	96%
		CS(=O)(=O)c1ccc(-c2cnc(N)c(-c3cccc(O)c3)c2)cc1 [Compound 3, 3-[2-amino-5-(4-methylsulfonylphenyl)pyridin-3-yl]phenol]	99%	94%
		COc1cc(-c2cc(-c3ccc(S(C)(=O)=O)cc3)cnc2N)ccc1O [Compound 4, 4-[2-amino-5-(4-methylsulfonylphenyl)pyridin-3-yl]-2-methoxyphenol]	99%	96%
		CS(=O)(=O)c1ccc(-c2cnc(N)c(-c3ccc(O)cc3)c2)cc1 [Compound 5, 4-[2-amino-5-(4-methylsulfonylphenyl)pyridin-3-yl]phenol]	98%	98%
		COc1ccc(-c2cnc(N)c(-c3ccc(O)c(OC)c3)c2)cn1 [Compound 6, 4-[2-amino-5-(6-methoxypyridin-3-yl)pyridin-3-yl]-2-methoxyphenol]	98%	98%
		Cc1cc(-c2cnc(N)c(-c3ccc(N4CCN(C)CC4)cc3)c2)cc(C)c1O [Compound 7, 4-[6-amino-5-[4-(4-methylpiperazin-1-yl)phenyl]pyridin-3-yl]-2,6-dimethylphenol]	93%	96%
		COc1ccc(-c2cc(-c3ccc(CO)cc3)cnc2N)cn1 [Compound 8, [4-[6-amino-5-(6-methoxypyridin-3-yl)pyridin-3-yl]phenyl]methanol]	83%	
		CN1CCN(c2ccc(-c3cc(-c4ccc(O)cc4)cnc3N)cc2)CC1 [Compound 9, 4-[6-amino-5-[4-(4-methylpiperazin-1-yl)phenyl]pyridin-3-yl]phenol]	76%	53%
0.032 µg/mL (≈ 0.0795 µM)	0.031 µg/mL (≈ 0.077 µM)	CS(=O)(=O)c1ccc(-c2cnc(N)c(-c3ccc(S(C)(=O)=O)cc3)c2)cc1 [Compound 17, 3,5-di-[4-(methylsulfonyl)phenyl]pyridin-2-amine]		
0.051 µg/mL (≈ 0.146 µM)	0.056 µg/mL (≈ 0.16 µM)	CS(=O)(=O)c1ccc(-c2cnc(N)c(-c3ccc(C#N)cc3)c2)cc1 [Compound 25, 4-{2-amino-5-[4-(methylsulfonyl)-phenyl]pyridin-3-yl}benzonitrile]		
0.059 µg/mL (≈ 0.169 µM)	0.061 µg/mL (≈ 0.175 µM)	CS(=O)(=O)c1ccc(-c2cnc(N)c(-c3cccc(C#N)c3)c2)cc1 [Compound 26, 3-{2-amino-5-[4-(methylsulfonyl)-phenyl]pyridin-3-yl}benzonitrile]		
0.01 µg/mL (≈ 0.0272 µM)	0.01 µg/mL (≈ 0.0272 µM)	CS(=O)(=O)c1ccc(-c2cnc(N)c(-c3ccc(C(N)=O)cc3)c2)cc1 [Compound 28, 4-{2-amino-5-[4-(methylsulfonyl)phenyl]pyridin-3-yl} benzamide]		
0.026 µg/mL (≈ 0.0682 µM)	0.03 µg/mL (≈ 0.0786 µM)	CNC(=O)c1ccc(-c2cc(-c3ccc(S(C)(=O)=O)cc3)cnc2N)cc1 [Compound 29, 4-{2-amino-5-[4-(methylsulfonyl)-phenyl]pyridin-3-yl}-N-methyl benzamide]		
0.098 µg/mL (≈ 0.275 µM)	0.093 µg/mL (≈ 0.261 µM)	COc1ncc(-c2cc(-c3ccc(S(C)(=O)=O)cc3)cnc2N)cn1 [Compound 31, 3-(2-methoxypyrimidin-5-yl)-5-[4-(methylsulfonyl)phenyl]pyridin-2-amine]		
0.074 µg/mL (≈ 0.181 µM)	0.078 µg/mL (≈ 0.191 µM)	CS(=O)(=O)c1ccc(-c2cnc(N)c(-c3cccc(OC(F)(F)F)c3)c2)cc1 [Compound 36, 5-[4-(methysulfonyl)phenyl]-3-[3-(trifluoromethoxy)phenyl] pyridin-2-amine]		

EC50 [1]	EC50 [2]	SMILES	inhibition at 1.8 µM [3]	inhibition at 1.8 µM [4]
0.097 µg/mL (≈ 0.238 µM)	0.099 µg/mL (≈ 0.242 µM)	CS(=O)(=O)c1ccc(-c2cnc(N)c(-c3ccc(OC(F)(F)F)cc3)c2)cc1 [Compound 37, 5-[4-(methylsulfonyl)phenyl]-3-[4-(trifluoromethoxy)phenyl]pyridin-2-amine]		
0.061 µg/mL (≈ 0.155 µM)	0.071 µg/mL (≈ 0.18 µM)	CS(=O)(=O)c1ccc(-c2cnc(N)c(-c3ccnc(C(F)(F)F)c3)c2)cc1 [Compound 42, 3-[2-(trifluoromethyl)pyridin-4-yl]-5-[4-(methylsulfonyl)phenyl] pyridin-2-amine]		
0.0098 µg/mL (≈ 0.0289 µM)	0.0094 µg/mL (≈ 0.0277 µM)	Cc1ccc(-c2cc(-c3ccc(S(C)(=O)=O)cc3)cnc2N)cn1 [Compound 43, 3-(2-methylpyridin-5-yl)-5-[4-(methylsulfonyl)phenyl] pyridin-2-amine]		
0.01 µg/mL (≈ 0.0254 µM)		CS(=O)(=O)c1ccc(-c2cnc(N)c(-c3ccc(C(F)(F)F)nc3)c2)cc1 [Compound 44, 3-[2-(trifluoromethyl)pyridin-5-yl]-5-[4-(methylsulfonyl)phenyl] pyridin-2-amine]		
0.085 µg/mL (≈ 0.218 µM)	0.089 µg/mL (≈ 0.228 µM)	CS(=O)(=O)c1ccc(-c2cnc(N)c(-c3ccc(-n4cccn4)cc3)c2)cc1 [Compound 47, 3-[4-(1H-pyrazol-1-yl)phenyl]-5-[4-(methylsulfonyl)phenyl] pyridin-2-amine]		
0.041 µg/mL (≈ 0.12 µM)	0.04 µg/mL (≈ 0.117 µM)	CS(=O)(=O)c1ccc(-c2cnc(N)c(-c3cnc(N)nc3)c2)cc1 [Compound 55, 5-{2-amino-5-[4-(methylsulfonyl)-phenyl]pyridin-3-yl}pyrimidin-2-amine]		
0.098 µg/mL (≈ 0.261 µM)	0.107 µg/mL (≈ 0.285 µM)	CS(=O)(=O)c1ccc(-c2cnc(N)c(-c3ccc4ncccc4c3)c2)cc1 [Compound 59, 5-[4-(methylsulfonyl)phenyl]-3-(quinolin-6-yl) pyridin-2-amine]		
0.033 µg/mL (≈ 0.0975 µM)	0.034 µg/mL (≈ 0.1 µM)	Cc1ccc(-c2cc(-c3ccc(S(C)(=O)=O)cc3)cnc2N)cc1 [Compound 65, 5-[4-(methylsulfonyl)phenyl]-3-p-tolylpyridin-2-amine]		
0.06 µg/mL (≈ 0.169 µM)	0.061 µg/mL (≈ 0.172 µM)	CS(=O)(=O)c1ccc(-c2cnc(N)c(-c3ccc(CO)nc3)c2)cc1 [Compound 69, {5-[2-amino-5-(4-(methylsulfonyl)-phenyl)pyridin-3-yl]pyridin-2-yl}methanol]		
0.0068 µg/mL (≈ 0.0169 µM)	0.0079 µg/mL (≈ 0.0196 µM)	NC(=O)c1ccc(-c2cc(-c3ccc(C(=O)N4CCOCC4)cc3)cnc2N)cc1 [Compound 71, {4-[2-amino-3-(4-carbamoyl phenyl)pyridin-5-yl]phenyl}-(morpholino) methanone]		
0.11 µg/mL (≈ 0.259 µM)	0.088 µg/mL (≈ 0.207 µM)	CN(C)CC(=O)Nc1ccc(-c2cc(-c3ccc(S(C)(=O)=O)cc3)cnc2N)cc1 [Compound 75, N-{4-[2-amino-5-(4-(methylsulfonyl)phenyl)pyridin-3-yl]phenyl}-2-(dimethylamino) acetamide]		
0.11 µg/mL (≈ 0.273 µM)	0.094 µg/mL (≈ 0.233 µM)	CS(=O)(=O)c1ccc(-c2cnc(N)c(-c3ccc(S(C)(=O)=O)nc3)c2)cc1 [Compound 78, 5-[4-(methylsulfonyl)phenyl]-3-[2-(methylsulfonyl)-pyridin-5-yl]pyridin-2-amine]		
0.046 µg/mL (≈ 0.12 µM)	0.047 µg/mL (≈ 0.123 µM)	CC(=O)Nc1ccc(-c2cc(-c3ccc(S(C)(=O)=O)cc3)cnc2N)cn1 [Compound 79, N-{5-[2-amino-5-(4-(methylsulfonyl)-phenyl)pyridin-3-yl]pyridin-2-yl}acetamide]		
0.028 µg/mL (≈ 0.0842 µM)	0.025 µg/mL (≈ 0.0752 µM)	NC(=O)c1ccc(-c2cnc(N)c(-c3ccc(C(N)=O)cc3)c2)cc1 [Compound 80, 4-[2-amino-3-(4-benzamido)pyridin-5-yl]benzamide]		
0.0086 µg/mL (≈ 0.0219 µM)	0.0081 µg/mL (≈ 0.0206 µM)	CS(=O)(=O)c1ccc(-c2cnc(N)c(-c3ccc(C(F)(F)F)cc3)c2)cc1 [Compound 85, 3-[4-(trifluoromethyl)phenyl]-5-[4-(methylsulfonyl)phenyl]pyridin-2-amine]		
